Assays:
Wistar rats [1] = assay: Subacute toxicity: glomerular filtration rate (creatinine clearance) and serum creatinine; type: in vivo; conditions: rats, p.o., 14 days at 10% of LD50 (CCl4, APAP: once daily, 3 days); mean ± SEM, n = 6
Method: (§1) For toxicity tests, acclimatized rats were randomly allocated to 12 groups (n = 12 for the control and n = 6 for the rest groups). […] Meanwhile, the aforementioned vehicles (dose volume 2 mL/kg b.w.) were administered to 3 groups. […] The animals were then housed in individual metabolic cages to collect urine for a period of 6 h and then the volume was recorded. Afterward, blood samples were obtained and the serum was separated by centrifugation at 1,620 × g for 10 min at room temperature.
(§2) Serum and urinary creatinine were determined by the Jaffe method. With this value, evaluation was made of the fractional excretion of sodium (FES), fractional excretion of potassium (FEP), and fractional excretion of glucose.[30]^,[31] The GFR was calculated from clearance of endogenous creatinine using the conventional equation:where GFR (CCr) is the creatinine clearance rate (mL/min); UCr and SCr are the creatinine concentrations (mg/dL) in urine and serum, respectively; and φ is the urinary flow rate (UFR) (mL/min). To avoid the error from the tubular secretion of creatinine found in males, only female animals were used.

Wistar rats [2] = assay: Subacute toxicity: water and electrolyte balance (osmolality, sodium, potassium, urinary flow); type: in vivo
Method: as §1
Osmolality of serum and urine were assessed (in triplicate) by using a vapor pressure osmometer (Wescor 5500, Logan, United States). U/S ratio as well as osmolar (COsm) and free water clearances were calculated via conventional equations:where UOsm and SOsm are the osmolality values (mOsm/Kg) in urine and serum, respectively, and φ is the UFR (mL/min).
(§3) The levels of sodium and potassium were measured in urine and serum using a flame photometer (Corning 400, Medfield, United States). Calculation was made of the clearance, fractional excretion, and filtered load of sodium (FLS), filtered load of potassium (FLP), and filtered load of glucose (FLG) using the conventional equations:where CX is the clearance rate of X (mL/min), CCr is the creatinine clearance rate (mL/min), UX and SX are the […] concentrations of X, respectively, φ is the UFR (mL/min), FEX is the fractional excretion (%) of X, and FLX is the filtered load of X in μEq/min (Na^+ or K^+) or mg/min (glucose).

NIH mice = assay: Acute oral toxicity, median lethal dose (LD50); type: in vivo
Method: All treatments were administrated orally (p.o.) according to the scheme mentioned below.
Acute toxicity tests were performed in order to measure the median lethal dose (LD50). After acclimatization, mice were randomly allocated to ten groups (n = 4), including the control group (e.g. water, Tween 80, or PO) and the experimental groups, each with a single dose of one of the IMPYs at 4 levels of dose (0.5, 1.0, 2.0, and 4.0 g/kg b.w.).
Animals were food deprived overnight prior to administration of the chemical compounds or vehicles, and food was returned 4 h after dosing. Animals had access to water ad libitum throughout the study.[27]^,[28]

Wistar rats [3] = assay: Subacute toxicity: serum alanine aminotransferase and alkaline phosphatase activity; type: in vivo
Method: (§4) For toxicity tests, acclimatized rats were randomly allocated to 12 groups (n = 12 for the control and n = 6 for the rest groups). […] Meanwhile, the aforementioned vehicles (dose volume 2 mL/kg b.w.) were administered to 3 groups. […] Upon completion of the 14-day treatments and before sample collection, the bladders of animals were emptied by gentle pressure on the lower part of the abdomen to induce urination. The animals were then housed in individual metabolic cages to collect urine for a period of 6 h and then the volume was recorded. Afterward, blood samples were obtained and the serum was separated by centrifugation at 1,620 × g for 10 min at room temperature.
The activities of serum alanine aminotransferase (ALT) and alkaline phosphatase (ALP) were measured with standard kits (RANDOX, Laboratories Ltd, UK).

[4] = system: renal secretory pathway of organic anions; assay: Active tubular secretion of organic acids (PAH uptake in kidney cortex slices); type: in vivo, rats; conditions: kidney cortex slices, PAH 1 mM, 1 h, 25 °C; rats, p.o., 14 days at 10% of LD50 (CCl4, APAP: once daily, 3 days); mean ± SEM, n = 6
Method: as §4
p-Aminohippuric acid (PAH) was used as an indicator of the renal secretory pathway of organic anions. Kidneys were extracted and immediately submerged in Ringer solution (pH = 7.4 and mOsm = 290 ± 10 mOsm/kg) under constant bubbling with O2/CO2 (95/5%). The kidneys were decapsulated and slices of the kidney cortex were obtained, which were then incubated in Ringer solution containing PAH (1 mM) for 1 h at 25 °C under constant bubbling with O2/CO2 (95/5%). The levels of PAH were quantified with the Bratton-Marshall method and results were expressed as the PAH tissue/medium ratio (PAH t/m ratio).[31]^,[32]

Wistar rats [5] = assay: Hepatic and renal reactive oxygen species (DCF formation); type: in vivo; conditions: rats, p.o., 14 days at 10% of LD50 (CCl4, APAP: once daily, 3 days), mean ± SEM, n = 6
Method: as §4
Reactive oxygen species (ROS) were measured by formation of 2′,7′-dichlorofluorescein (DCF). An aliquot of 10 μL (kidney) or 5 μL (liver) of the homogenates was added to 1,940 or 1,945 μL of TRIS:HEPES (18:1) and was incubated in the presence of 50 μL of 2′,7′-dichlorofluorescein diacetate for 1 h at 37 °C. In order to quench the reaction, the mixture was chilled using an ice bath. The fluorescence was measured using a Shimadzu fluorometer (Japan; λex = 488 nm; λem = 525 nm). The results were expressed as nM DCF formed per mg protein/h.[33]
(§5) The protein concentration in homogenates was measured by the Bradford method.[29]

Wistar rats [6] = assay: Hepatic and renal lipid peroxidation (lipid-soluble fluorescence); type: in vivo
Method: as §4
Lipid peroxidation (LPO) was evaluated by the formation of lipid-soluble fluorescence, as previously described. Briefly, kidney and liver tissues were homogenized in 3 and 5 mL of phosphate buffer (0.2 M, pH = 7.4), respectively. A volume of 1 mL (kidney) or 0.8 mL (liver) of the homogenates was added to 7 mL of chloroform-methanol (2:1, v/v), and after 15 s of vortex mixing, the resulting mixture was cooled using an ice bath for 30 min to allow for phase separation. The fluorescence of the organic phase was measured using a Shimadzu fluorometer (Japan; λex = 370 nm; λem = 430 nm), whose sensitivity was adjusted to 140 fluorescence units by using 1 μg/mL of quinine sulfate in 50 mM H2SO4. The results were expressed as relative fluorescence units per milligram of protein.[33]
as §5

Wistar rats [7] = assay: Subacute toxicity: serum and urine glucose, urinary protein excretion; type: in vivo
Method: as §1
Serum and urine glucose concentration were calculated using GOD-PAP kits (RANDOX, Laboratories Ltd, UK). Urinary protein was quantified using the Bradford method.[29]
as §2, §3

[8] = rats, p.o., 14 days at 10% of LD50 (CCl4, APAP: once daily, 3 days), mean ± SEM, n = 6
[9] = based on oral LD50, according to GHS [39]
[10] = serum, rats, p.o., 14 days at 10% of LD50 (CCl4, APAP: once daily, 3 days), mean ± SEM, n = 6

## N#Cc1nc2ccccn2c1[N+](=O)[O-] [Compound 2b, 3-nitroimidazo[1,2-a]pyridine-2-carbonitrile]
Wistar rats [1]
  Glomerular Filtration Rate: 1.81 ± 0.26 mL/min
  Serum Creatinine: 0.56 ± 0.08 mg/dL
Wistar rats [2]; 2b versus control, tween 80, and 2a, 4 versus control
  urinary sodium excretion (USE), change in words: higher
Wistar rats [2]; compared to the control (2b also versus 2a)
  potassium clearance, change in words: increased
Wistar rats [2]; compared to the control and 2a
  urinary potassium excretion (UPE), change in words: increased
Wistar rats [2]; compared to the control group
  osmolar clearance, change in words: greater
Wistar rats [2]; compared to the control group, significant by PLS VIP and ANOVA
  freewater clearance, change in words: lower
Wistar rats [2]; in comparison with the control group
  UFR (urinary flow rate), change in words: increased
Wistar rats [2]; in comparison with tween 80
  FES (fractional excretion of sodium), change in words: increased
Wistar rats [2]; [8]
  Filtered Load of Potassium: 10.21 ± 1.12 µEq/min
  Filtered Load of Sodium: 267.24 ± 51.35 µEq/min
  Fractional Excretion of Potassium: 13.47 ± 1.95%
  Fractional Excretion of Sodium: 0.88 ± 0.29%
  Serum Osmolality: 288.93 ± 1.51 mOsm/kg
  Serum Potassium: 5.79 ± 0.31 mEq/L
  Serum Sodium: 141.65 ± 15.47 mEq/L
  U/S Osm ratio: 3.44 ± 0.10
  Urinary Flow Rate: 8.29 ± 1.67 µL/min
  Urinary Potassium Excretion: 1.38 ± 0.21 µEq/min
  Urinary Sodium Excretion: 1.87 ± 0.39 µEq/min
Wistar rats [2]; versus control, tween 80, and 2a
  sodium clearance, change in words: higher
NIH mice; [9]
  Category (GHS acute oral toxicity hazard category): 4
  Hazard statement (GHS): Harmful if swallowed
NIH mice; female NIH mice, single oral dose, 14 days observation
  Oral LD50: 1.606 g/kg b.w.
Wistar rats [3]; compared to the control (CCl4 also versus PO)
  serum ALP, change in words: greater
Wistar rats [3]; [10]
  Alanine Aminotransferase: 44.90 ± 2.46 U/L
  Alkaline Phosphatase: 192.21 ± 38.07 U/L
[4]
  PAH t/m ratio: 2.11 ± 0.20
Wistar rats [5]; kidney
  Renal ROS: 225.78 ± 56.22 nM de DCF/mg protein/h
Wistar rats [5]; liver
  Hepatic ROS: 208.65 ± 30.24 nM de DCF/mg protein/h
Wistar rats [6]; compared to the control group (CCl4 also versus PO)
  renal LPO, change in words: greater
Wistar rats [6]; kidney, rats, p.o., 14 days at 10% of LD50 (CCl4, APAP: once daily, 3 days), mean ± SEM, n = 6
  Renal Lipoperoxidation: 0.47 ± 0.03 URF/mg protein
Wistar rats [6]; liver, rats, p.o., 14 days at 10% of LD50 (CCl4, APAP: once daily, 3 days), mean ± SEM, n = 6
  Hepatic Lipoperoxidation: 0.64 ± 0.10 URF/mg protein
Wistar rats [7]; [8]
  Filtered Load of Glucose: 2.29 ± 0.33 mg/min
  Fractional Excretion of Glucose: 0.01 ± 1.8E-3%
  Serum Glucose: 126.47 ± 5.03 mg/dL
  Urinary Glucose Excretion: 109.06 ± 24.61 ng/min
  Urinary Protein Excretion: 0.86 ± 0.20 µg/min
Wistar rats [7]; versus 2a
  FLG (filtered load of glucose), change in words: increased

Source: article PMC9618103, “Exploratory toxicology studies of 2,3-substituted imidazo[1,2-a]pyridines with antiparasitic and anti-inflammatory properties” (Toxicology Research, 2022)
